Results: PMC10536189 (Microorganisms, 2023)
Where two headings read alike, the source gives them in different places. Where no end group is shown, it is not given here.

Assays:
[1] = system: Mycobacterium avium subsp. paratuberculosis (MAP); assay type: cell-based; conditions: for Effect on growth of MAP compared to control: peptide 20 µg/mL, 37 °C; for Effect on growth of MAP (growth-enhancing activity) of protease-stabilised peptides: peptide 10 µg/mL, absorbance at 600 nm
M. tuberculosis = assay type: cell-based, Mycobacterium tuberculosis (laboratory strain H37Rv); conditions: for Time to Positivity (Days.Hours) Experiment 2a / Time to Positivity (Days.Hours) Experiment 2b / Time to Positivity (Days.Hours) Experiment 1a / Time to Positivity (Days.Hours) Experiment 1b / Effect on TTP of MTB in words / Time to Positivity (Days.Hours) Experiment 2 / Time to Positivity (Days.Hours) Experiment 1: MGIT; for Time to Positivity (Days.Hours) Experiment 2a / Time to Positivity (Days.Hours) Experiment 2b: diluted inoculum; for Time to Positivity (Days.Hours) Experiment 2a: technical repeat 2a, TB control (no peptide) 15.01; for Time to Positivity (Days.Hours) Experiment 2b: technical repeat 2b, TB control (no peptide) 15.20; for Time to Positivity (Days.Hours) Experiment 1a / Time to Positivity (Days.Hours) Experiment 1b: less diluted inoculum; for Time to Positivity (Days.Hours) Experiment 1a: technical repeat 1a, TB control (no peptide) 7.02; for Time to Positivity (Days.Hours) Experiment 1b: technical repeat 1b, TB control (no peptide) 7.01; for Time to Positivity (Days.Hours) Experiment 2: control (0 µg/mL) 6.12; for Time to Positivity (Days.Hours) Experiment 1: control (0 µg/mL) 6.19
[2] = system: Mycobacterium tuberculosis (MTB); assay type: cell-based, Mycobacterium tuberculosis (laboratory strain H37Rv)
Mycobacterium marinum = assay type: cell-based, Mycobacterium marinum NCTC 2275; conditions: Peptide 14 at 20 µg/mL, 30 °C
[3] = system: Mycobacterium avium-intracellulare; assay type: cell-based, Mycobacterium intracellulare serotype 7 NCTC10682; conditions: Peptide 14 at 20 µg/mL
Mycobacterium celatum = assay type: cell-based, Mycobacterium celatum (clinical isolate); conditions: Peptide 14 at 20 µg/mL
Mycobacterium abscessus = assay type: cell-based, Mycobacterium abscessus (clinical human isolate); conditions: Peptide 14 at 20 µg/mL
M. bovis = assay type: cell-based
MTB H37Rv = assay type: cell-based, Mycobacterium tuberculosis H37Rv; conditions: 14D at 1 µg/mL
mycobacteria [4] = assay: TTP in BacT/Alert system; assay type: cell-based; conditions: Peptide 14D; BacT/Alert (Biomerieux); Figure S1
Method: (§1) Peptide 14D was used to check if other machines that are routinely used in medical microbiology for the detection of mycobacteria show shorter TTP as well. BacT/Alert (Biomerieux, Marcy-l’Étoile, France and VersaTrek (ThermoFisher, Waltham, MA, United States) were tested, and shorter TTP was shown for both systems (see Figure S1 in the Supplementary Materials).

mycobacteria [5] = assay: TTP in VersaTrek system; assay type: cell-based; conditions: Peptide 14D; VersaTrek (ThermoFisher); Figure S1
Method: as §1

[6] = peptide 10 µg/mL, overall average of the averages of experiments 1a/1b and 2a/2b, negative = slower
[7] = crude peptide 10 µg/mL, average of experiments 1 and 2, negative = slower

In the case of “RLARIVVIRVRR-CONH2 (RLARIVVIRVRR-NH2) [Peptide 70]”, the “Effect on growth of MAP compared to control” value [1] is reported as “no discernible effect on the growth”, the “Time to Positivity (Days.Hours) Experiment 2a” value (M. tuberculosis; peptide 10 µg/mL) is reported as 14.22 Days.Hours and the “Time to Positivity (Days.Hours) Experiment 2b” value (M. tuberculosis; peptide 10 µg/mL) is reported as 15.06 Days.Hours. For the same substance, the “Time to Positivity (Days.Hours) Experiment 1a” value (M. tuberculosis; peptide 10 µg/mL) was 6.03 Days.Hours, the “Time to Positivity (Days.Hours) Experiment 1b” value (M. tuberculosis; peptide 10 µg/mL) was 6.19 Days.Hours and the “Average % Faster than Control” value (M. tuberculosis; [6]) was 4.2%.

For “RLARIVVIRWAR-CONH2 (RLARIVVIRWAR-NH2) [Peptide 72]”, the “Effect on growth of MAP compared to control” value [1] was “significant reduction in the growth”, the “Time to Positivity (Days.Hours) Experiment 2a” value (M. tuberculosis; peptide 10 µg/mL) was 15.01 Days.Hours and the “Time to Positivity (Days.Hours) Experiment 2b” value (M. tuberculosis; peptide 10 µg/mL) was 15.13 Days.Hours. For the same substance, the “Time to Positivity (Days.Hours) Experiment 1a” value (M. tuberculosis; peptide 10 µg/mL) was 6.22 Days.Hours, the “Time to Positivity (Days.Hours) Experiment 1b” value (M. tuberculosis; peptide 10 µg/mL) was 7.01 Days.Hours and the “Average % Faster than Control” value (M. tuberculosis; [6]) was −0.2%.

In the case of “RRWRIVVIRVRR-CONH2 (RRWRIVVIRVRR-NH2) [Peptide 69]”, the “Effect on growth of MTB compared to control” value [2] is reported as “slight improvements”, the “Effect on TTP of MTB in words” value (M. tuberculosis; peptide 10 µg/mL) is reported as “strong hormetic response” and the “Time to Positivity (Days.Hours) Experiment 2a” value (M. tuberculosis; peptide 10 µg/mL) is reported as 13.12 Days.Hours. For the same substance, the “Time to Positivity (Days.Hours) Experiment 2b” value (M. tuberculosis; peptide 10 µg/mL) was 13.02 Days.Hours, the “Time to Positivity (Days.Hours) Experiment 1a” value (M. tuberculosis; peptide 10 µg/mL) was 6.02 Days.Hours and the “Time to Positivity (Days.Hours) Experiment 1b” value (M. tuberculosis; peptide 10 µg/mL) was 6.02 Days.Hours. For the same substance, the “Average % Faster than Control” value (M. tuberculosis; [6]) was 12.8%.

In the case of “VNWKKILGKIIKVVK [Lasioglossin LL-III/Bee]”, the “Time to Positivity (Day.Hours) Experiment 1” value (M. tuberculosis) is reported as 9.18 Day.Hours, the “Time to Positivity (Day.Hours) Experiment 2” value (M. tuberculosis) is reported as 8.08 Day.Hours and the “Average % Faster than Control” value (M. tuberculosis; [7]) is reported as 13.1%.

VRRFPWWWPFLRR [Tritrpticin/Pig] was tested, and the “Time to Positivity (Day.Hours) Experiment 1” value (M. tuberculosis) was 11.08 Day.Hours, the “Time to Positivity (Day.Hours) Experiment 2” value (M. tuberculosis) was 9.13 Day.Hours and the “Average % Faster than Control” value (M. tuberculosis; [7]) was −0.3%.

In the case of WCFRVCYKGFCYRKCR [Polyphemusin/Crab *], the “Time to Positivity (Day.Hours) Experiment 1” value (M. tuberculosis) is reported as 11.05 Day.Hours, the “Time to Positivity (Day.Hours) Experiment 2” value (M. tuberculosis) is reported as 8.13 Day.Hours and the “Average % Faster than Control” value (M. tuberculosis; [7]) is reported as 5.6%.

For WGKLFKLGLHGIGLLH [NRC-15/Fish *], the “Time to Positivity (Day.Hours) Experiment 1” value (M. tuberculosis) was 10.21 Day.Hours, the “Time to Positivity (Day.Hours) Experiment 2” value (M. tuberculosis) was 8.07 Day.Hours and the “Average % Faster than Control” value (M. tuberculosis; [7]) was 8.3%.

For WKIVFWWRR-NH2 [Peptide 14], the “Dependence of growth-enhancing effect on starting inoculum” value [1] was “lower inocula being more greatly affected”, the “Effect on growth of MAP compared to control” value [1] was “strongest effects” and the Effect on growth (Mycobacterium marinum) was “growth stimulating effect”. For the same substance, the Effect on growth [3] was “growth stimulating effect”, the Effect on growth (Mycobacterium celatum) was “growth stimulating effect” and the Effect on growth (Mycobacterium abscessus) was “enhance the growth”. The Effect on growth (M. bovis) was “growth stimulating effect”, the “Concentration at which growth inhibition of MTB is observed” value (from here on “Concentration at which growth inhibition”) [2] was 50 µg/mL and the “Effect on growth of MTB compared to control” value [2] was “slight improvements”. For the same substance, the “Upper end of concentration range with hormetic response / growth stimulation in MTB” value [2] was 10 µg/mL, the “Effect on TTP of MTB in words” value (M. tuberculosis; peptide 10 µg/mL) was “strong hormetic response” and the “Time to Positivity (Days.Hours) Experiment 2a” value (M. tuberculosis; peptide 10 µg/mL) was 13.23 Days.Hours. The “Time to Positivity (Days.Hours) Experiment 2b” value (M. tuberculosis; peptide 10 µg/mL) was 14.01 Days.Hours, the “Time to Positivity (Days.Hours) Experiment 1a” value (M. tuberculosis; peptide 10 µg/mL) was 6.01 Days.Hours and the “Time to Positivity (Days.Hours) Experiment 1b” value (M. tuberculosis; peptide 10 µg/mL) was 6.12 Days.Hours. The “Average % Faster than Control” value (M. tuberculosis; [6]) was 9.1%.

For YAYVRIRGVLVRYRRC [Arenicin-2/Lugworm], the “Time to Positivity (Day.Hours) Experiment 1” value (M. tuberculosis) was 11.13 Day.Hours, the “Time to Positivity (Day.Hours) Experiment 2” value (M. tuberculosis) was 8.03 Day.Hours and the “Average % Faster than Control” value (M. tuberculosis; [7]) was 6.3%.

YQEPVLGPVRGPFPIIV [Casecidin 17/Cow] was tested, and the “Time to Positivity (Day.Hours) Experiment 1” value (M. tuberculosis) was 11.12 Day.Hours, the “Time to Positivity (Day.Hours) Experiment 2” value (M. tuberculosis) was 8.14 Day.Hours and the “Average % Faster than Control” value (M. tuberculosis; [7]) was 4.1%.

In the case of rrwrivvirvrr-CONH2 [Peptide 69D], the “Effect on growth of MAP (growth-enhancing activity) of protease-stabilised peptides” value [1] is reported as “growth-enhancing activity remained”, the “Concentration at which growth inhibition” value [2] is reported as no less than 10 µg/mL and the “Concentration with strong sustained growth stimulation of MTB” value [2] is reported as 10 ng/mL.

For wkivfwwrr-CONH2 [Peptide 14D], the “Growth enhancement after the peptide was removed” value [1] was “reversible”, the “Effect on growth of MAP (growth-enhancing activity) of protease-stabilised peptides” value [1] was “small improvement in activity” and the “Concentration at which growth inhibition” value [2] was no less than 10 µg/mL. For the same substance, the “Concentration with strong sustained growth stimulation of MTB” value [2] was 1000 ng/mL, the “Time to Positivity (Days.Hours) Experiment 2” value (M. tuberculosis; Peptide 14D 0.1 µg/mL) was 5.19 Days.Hours and the “Time to Positivity (Days.Hours) Experiment 1” value (M. tuberculosis; Peptide 14D 0.1 µg/mL) was 5.12 Days.Hours. For the same substance, the “Average % Faster than Control” value (M. tuberculosis; Peptide 14D 0.1 µg/mL, average of two independent experiments) was 15.0%, the “Time to Positivity (Days.Hours) Experiment 2” value (M. tuberculosis; Peptide 14D 0.5 µg/mL) was 5.17 Days.Hours and the “Time to Positivity (Days.Hours) Experiment 1” value (M. tuberculosis; Peptide 14D 0.5 µg/mL) was 5.17 Days.Hours. The “Average % Faster than Control” value (M. tuberculosis; Peptide 14D 0.5 µg/mL, average of two independent experiments) was 14.1%, the “Time to Positivity (Days.Hours) Experiment 2” value (M. tuberculosis; Peptide 14D 1 µg/mL) was 5.08 Days.Hours and the “Time to Positivity (Days.Hours) Experiment 1” value (M. tuberculosis; Peptide 14D 1 µg/mL) was 5.05 Days.Hours. For the same substance, the “Average % Faster than Control” value (M. tuberculosis; Peptide 14D 1 µg/mL, average of two independent experiments) was 21.6%, the “Increase of time to positivity, first experiment” value (M. tuberculosis; Peptide 14D 10 µg/mL) was 8 h and the “Increase of time to positivity, second experiment” value (M. tuberculosis; Peptide 14D 10 µg/mL) was 20 h. For the same substance, the “Time to Positivity (Days.Hours) Experiment 2” value (M. tuberculosis; Peptide 14D 10 µg/mL) was 7.08 Days.Hours, the “Time to Positivity (Days.Hours) Experiment 1” value (M. tuberculosis; Peptide 14D 10 µg/mL) was 7.03 Days.Hours and the “Average % Faster than Control” value (M. tuberculosis; Peptide 14D 10 µg/mL, average of two independent experiments, negative = slower) was −7.3%. For the same substance, the “Time to Positivity (Days.Hours) Experiment 2” value (M. tuberculosis; Peptide 14D 25 µg/mL) was 9.17 Days.Hours, the “Time to Positivity (Days.Hours) Experiment 1” value (M. tuberculosis; Peptide 14D 25 µg/mL) was 9.21 Days.Hours and the “Average % Faster than Control” value (M. tuberculosis; Peptide 14D 25 µg/mL, average of two independent experiments, negative = slower) was −48.7%. For the same substance, the “Delay of growth (days to reach positivity relative to control)” value (M. tuberculosis; Peptide 14D 50 µg/mL) was “about triple”, the “Time to Positivity (Days.Hours) Experiment 1” value (M. tuberculosis; Peptide 14D 50 µg/mL) was 19.15 Days.Hours and the “Average % Faster than Control” value (M. tuberculosis; Peptide 14D 50 µg/mL, average of two independent experiments, negative = slower) was −207.6%. For the same substance, the “Copy number compared with MTB control” value (MTB H37Rv) was “higher copy number”, the Copy number (MTB H37Rv; […], duplicates, cydA Taqman qPCR) was 1762000 and the “Effect on TTP” value (mycobacteria [4]) was “shorter TTP”. For the same substance, the “Effect on TTP” value (mycobacteria [5]) was “shorter TTP”.
